{"source": "patent US5106870A", "about": "“Methods for the use of thromboxane A2 antagonists” (National Research Development Corporation, priority 1990, dated 1992)", "key": {"[1]": {"system": "U-46619-induced platelet aggregation", "experiment": "Inhibition of U-46619-induced platelet aggregation in rat platelet rich plasma (in vitro)", "type": "cell-based", "conditions": "rat PRP", "method": "a. Inhibition of U-46619-induced platelet aggregation (rat)\nPlatelet rich plasma (PRP) was prepared from heparanized whole blood (5 units/ml) drawn from the abdominal aorta of ether anesthetized rats. PRP was prepared by centrifugation (Sorvall RC2B, DuPont, Wilmington, Del.) of the whole blood at 150×g for 10 min. Platelet poor plasma (PPP) was prepared by centrifugation at 1200×g for 20 min. Aliquots of PRP and PPP were used to standardize the aggregometer (Payton, Buffalo, N.Y., model 300B) with the recorder (Riken Denshi 2 channel recorder, Payton, model SP-H5P) for measurement of minimum and maximum light transmittance, respectively.\nPlatelet aggregation was measured as an increase in light transmittance. PRP (390 μl aliquot +5 μl compound vehicle) was preincubated for 1 min. at 37° C., with stirring at 900 rpm in the aggregometer. The vehicle control response was obtained by adding U-46619 (Cayman Chemical, Ann Arbor, Mich., 1-2 units/cuvette/10 μl) to the aliquot of PRP. Aggregation was monitored until maximum aggregation was achieved (approximately 3 min. following the addition of U-46619). Amount of aggregation was measured by grids on the strip chart.\nCompounds were dissolved in either ethanol (ETOH) or Na2 CO3 (0.1M) and preincubated at the desired concentration in PRP for 1 min. at 37° C. with stirring. At the end of the preincubation, U-46619 was added and aggregation measured. Inhibition of aggregation by compound was calculated as percent inhibition of the control aggregation response to U-46619. Dose response curves were generated and IC50 's calculated by linear regression."}, "[2]": {"system": "U-46619 induced platelet aggregation", "experiment": "Ex vivo inhibition of U-46619 induced platelet aggregation, intragastric", "type": "in vivo", "conditions": "rat", "method": "(§1) II. Ex vivo--(rat) Inhibition of U-46619 induced platelet aggregation\nCompounds dissolved in Na Carbonate were administered to conscious rats with an I.G. tube. Fifteen minutes post administration (time previously determined to show maximum effect), rats were anesthetized with ether and blood was sampled from the abdominal aorta, PRP was prepared as described in II a."}, "[3]": {"system": "U-46619 induced platelet aggregation", "experiment": "Ex vivo inhibition of U-46619 induced platelet aggregation, intravenous", "type": "in vivo", "conditions": "rat", "method": "as §1\nRats were anesthetized with ether and the jugular vein exposed. Compound dissolved in 0.1M Na Carbonate was injected as a bolus into the jugular vein. Blood (5 ml, heparanized) was sampled 30 sec. later from the abdominal aorta. PRP was prepared by quick centrifugation (Eppendorf, model 5415 at 12,000 rpm for 5 sec. PPP was prepared by centrifugation for 2 min. PRP was diluted 1:1 with PPP from similarly treated animals. Aggregation was monitored for 5 min. and inhibition was determined as previously described."}, "human washed platelets": {"system": "human washed platelets", "experiment": "Analysis of partial agonism (shape change/aggregation) in human washed platelets", "type": "cell-based", "conditions": "5 and 10 min incubation", "method": "b. Analysis of partial agonism with SC-46985 (human washed platelets)\nSixty ml of blood were drawn into 1/10 volume of CCD (100 mM Na Citrate and 136 mM glucose, pH 6.5 with HCl) and PRP prepared as described above. PRP was placed on ice for 15 min. One half of the volume of CCD was added and recentrifuged. The platelet pellet was gently resuspended in 1/2 the original volume of PRP in a 0° C. modified Tangen-Hepes-BSA buffer (145 mM NaCl, 5 mM KCl, 0.05 mM CaCl2, 0.1 mM MgCl2, 11 mM glucose, 15 mM Hepes, 1 mg/ml bovine serum albumin, pH adjusted to 7.4 with NaOH). The resuspended platelets were incubated undisturbed at 37° C. for 30 min. After incubation a platelet count was determined and adjusted to 3×10^8 cells/ml with the Tangen-Hepes-BSA buffer.\n425 μl of the washed human platelet suspension was incubated in the aggregometer in the presence of 16 mM CaCl2 (50 μl) and SC-46985 for 5 and 10 min. […] (In a study similar to (a) above, aliquots of human washed platelets were incubated with various concentrations of SC-46985 and U-46619 to determine dose-related inhibition of aggregation)."}}}
{"compound": "CC(=NNC(=S)Nc1ccccc1)[C@@H]1[C@H]2CC[C@H](C2)[C@H]1C/C=C\\CCCC(=O)O", "note": "(relative stereo) [SC-44161, (±)7-[3α[[(Phenylamino)thioxomethyl]hydrazono]ethyl]1α,4α-bicyclo[2.2.1]hept-2β-yl]-5Z-heptenoic acid]", "values": [{"measurement": "more potent in aqueous solution than when dissolved in ethanol", "setting": "[1]; aqueous (Na Carbonate) vs ethanol", "value": "5-10 fold"}]}
{"compound": "CC(=NNC(=S)Nc1ccccc1)[C@@H]1[C@H]2CC[C@H](C2)[C@H]1C/C=C\\CCCC(=O)O", "note": "[SC-46984, 7-[3α-[1-[[(Phenylamino)thioxomethyl]hydrazono]ethyl]-1R,1α,4α-bicyclo-[2.2.1]hept-2β-yl]-5Z-heptenoic acid]", "values": [{"measurement": "more potent than SC-44161 (I.G. ED50)", "setting": "[2]", "value": "approximately 2.8 times"}, {"measurement": "more potent than SC-44161 (ED50)", "setting": "[3]", "value": "approximately 3.5 times"}, {"measurement": "more potent than SC-44161", "setting": "[1]; in vitro", "value": "approximately 100 times"}]}
{"compound": "CC(=NNC(=S)Nc1ccccc1)[C@H]1[C@@H]2CC[C@@H](C2)[C@@H]1C/C=C\\CCCC(=O)O", "note": "[SC-46985]", "values": [{"measurement": "less potent than SC-44161 (ED50)", "setting": "[3]", "value": "approximately 1.5 times"}, {"measurement": "partial agonist activity (shape change or aggregation)", "setting": "human washed platelets", "value": "no evidence of shape change or aggregation"}]}
{"compound": "CC(=NNC(=S)Nc1ccccc1)[C@@H]1[C@H]2CC[C@H](C2)[C@H]1C/C=C/CCCC(=O)O", "note": "[SC-47721, 7-[3α-[1-[[(Phenylamino)thioxomethyl]hydrazono]ethyl]-1R,1α,4α-bicyclo-[2.2.1]hept-2β-yl]-5E-heptenoic acid]", "values": [{"measurement": "inhibition of U-46619 induced aggregation", "setting": "[2]; 1 mg/kg, 15 min post administration", "value": 37.5, "unit": "%"}, {"measurement": "more potent than SC-44161", "setting": "[1]; in vitro", "value": "10-50 times"}, {"measurement": "potency compared with SC-46984", "setting": "[1]; in vitro", "value": "less potent than SC-46984"}]}
